Common to all, as to assay type: cell-based
One experiment deals with S. aureus. The experiment can be described thus: microbe, parasite or virus in culture. As to conditions: for MIC: Staphylococcus aureus, read-out: Equivalent MIC. Here is the method: (§1) With the determination of the sensitivity to antibiotics in mind, a suspension of 0.5 MF (Mac Farland) in physiological water was prepared from bacterial colonies selected in Petri dishes, reading being carried out on an ATB 1550 densitometer marketed by BIOMERIEUX (ATB trade mark). The suspension obtained was respectively diluted to 1/100th in the medium of the invention and Mueller-Hinton medium. VITEK cards (VITEK trade mark) containing different antibiotics at 10 concentrations were filled in vacuo into a VITEK apparatus marketed by BIOMERIEUX-VITEK. The cards were incubated for 12 hours in a VITEK incubator/reader marketed by BIOMERIEUX-VITEK. The growth kinetics were visualized and interpreted and an equivalent MIC was determined (equivalent MIC: equivalent minimum inhibitory concentration, that is to say the smallest concentration for which no bacterial growth is detected by the apparatus).
(§2) IST refers to the medium of the invention and MH signifies Mueller-Hinton medium.
(§3) *A range of concentration, of ratio 2, was tested for each antibiotic in
(§4) each of the abovementioned concentration margins.
(§5) S, I and R respectively signify "sensitive", "intermediate" and "resistant" with reference to the critical concentrations defined by the NCCLS (National Committee for Clinical Laboratory Standards).

A further experiment relates to S. epidermidis. The experiment can be described thus: microbe, parasite or virus in culture. To be noted: for MIC: Staphylococcus epidermidis, 12 h, read-out: Equivalent MIC. Here is the method:
as §1, §2, §3, §4, §5

For a further experiment, the system named is E. faecalis. Briefly: Equivalent MIC of antibiotics in VITEK cards, gram-positive bacteria (Table 4). To be noted: for MIC: Enterococcus faecalis, 12 h. Here is the method: as §1, §2, §3, §4, §5
Another experiment deals with K. pneumoniae. Briefly: Equivalent MIC of antibiotics in VITEK cards, gram-negative bacteria (Table 3). To be noted: for MIC: Klebsiella pneumoniae, 12 h. Here is the method: as §1, §2, §5
Another experiment deals with S. marcescens. The description is as above. To be noted: for MIC: Serratia marcescens, 12 h, read-out: Equivalent MIC. Here is the method:
as §1, §2, §5

A further experiment concerns P. aeruginosa. The description is as above. To be noted: for MIC: Pseudomonas aeruginosa, 12 h, read-out: Equivalent MIC. Here is the method: as §1, §2, §5
[1] abbreviates: ATCC29213, 12 h, ATCC 29213, IST medium.
Setting [2] is: ATCC29213, 12 h, ATCC 29213, MH medium.

Like-named read-outs stand apart in the source and are kept apart here.

On to `CC[C@H]1OC(=O)[C@H](C)[C@@H](O[C@H]2C[C@@](C)(OC)[C@@H](O)[C@H](C)O2)[C@H](C)[C@@H](O[C@@H]2O[C@H](C)C[C@H](N(C)C)[C@H]2O)[C@](C)(O)C[C@@H](C)C(=O)[C@H](C)[C@@H](O)[C@]1(C)O` [erythromicin], for which the “NCCLS Category” value in the experiment with S. aureus (ATCC 29213, IST medium) is recorded as “S”; in the experiment on S. aureus (ATCC 29213, MH medium) it was “S”; with S. aureus (CDC 2194, IST medium), “R”; in the experiment on S. aureus (CDC 2194, MH medium) it was “R”; in the experiment on S. aureus (CDC 2215, IST medium), “S”; with S. aureus (CDC 2215, MH medium), “S”. The “NCCLS Category” value in the experiment on S. epidermidis (CDC 2024, IST medium) is “S”; with S. epidermidis (CDC 2024, MH medium) it was “S”; in the experiment with S. epidermidis (CDC 2105, IST medium), “S”; in the experiment on S. epidermidis (CDC 2105, MH medium), “S”; in the experiment on S. epidermidis (CDC 2234, IST medium), “R”; with S. epidermidis (CDC 2234, MH medium) it was “R”. For the same molecule, the “NCCLS Category” value was “R” with E. faecalis (CDC 2073, IST medium); “R” with E. faecalis (CDC 2073, MH medium); “I” in the experiment with E. faecalis (CDC 2230, IST medium); “I” in the experiment on E. faecalis (CDC 2230, MH medium). Moreover, the MIC in the experiment on S. aureus (12 h, CDC 2194, IST medium) is > 32 mg/L; with S. aureus (12 h, CDC 2194, MH medium) it was > 32 mg/L; in the experiment on S. aureus (12 h, CDC 2215, IST medium) it was 0.5 mg/L; in the experiment on S. aureus (12 h, CDC 2215, MH medium) it was 0.5 mg/L; with S. aureus (setting [1]), 0.5 mg/L; with S. aureus (setting [2]), 0.25 mg/L. For the same molecule, the MIC was 0.5 mg/L with S. epidermidis (CDC 2024, IST medium); 0.25 mg/L in the experiment with S. epidermidis (CDC 2024, MH medium); 0.25 mg/L with S. epidermidis (CDC 2105, IST medium); 0.25 mg/L in the experiment with S. epidermidis (CDC 2105, MH medium); > 32 mg/L with S. epidermidis (CDC 2234, IST medium); > 32 mg/L with S. epidermidis (CDC 2234, MH medium). For the same molecule, the MIC in the experiment with E. faecalis (CDC 2073, IST medium) turned out to be 16 mg/L; in the experiment with E. faecalis (CDC 2073, MH medium), 16 mg/L; in the experiment with E. faecalis (CDC 2230, IST medium) it was 4 mg/L; in the experiment with E. faecalis (CDC 2230, MH medium), 4 mg/L.

With `CC1COc2c(N3CCN(C)CC3)c(F)cc3c(=O)c(C(=O)O)cn1c23` (centres unmarked) [ofloxacin], the “NCCLS Category” value in the experiment with K. pneumoniae (API 88.03.111, IST medium) is “S”; in the experiment on K. pneumoniae (API 88.03.111, MH medium), “S”; with K. pneumoniae (API 88.08.056, IST medium) it was “I”; in the experiment with K. pneumoniae (API 88.08.056, MH medium) it was “I”; in the experiment on K. pneumoniae (CDC 2279, IST medium), “S”; in the experiment with K. pneumoniae (CDC 2279, MH medium), “S”. Moreover, the “NCCLS Category” value with S. marcescens (API 81.45.111, IST medium) is “I”; with S. marcescens (API 81.45.111, MH medium), “S”; in the experiment on S. marcescens (API 81.47.110, IST medium) it was “R”; with S. marcescens (API 81.47.110, MH medium), “R”. In addition, the MIC was 1 mg/L in the experiment on K. pneumoniae (API 88.03.111, IST medium); 1 mg/L with K. pneumoniae (API 88.03.111, MH medium); 4 mg/L with K. pneumoniae (API 88.08.056, IST medium); 4 mg/L with K. pneumoniae (API 88.08.056, MH medium); 0.25 mg/L in the experiment with K. pneumoniae (CDC 2279, IST medium); 0.25 mg/L in the experiment on K. pneumoniae (CDC 2279, MH medium). For the same molecule, the MIC with S. marcescens (API 81.45.111, IST medium) stood at 4 mg/L; in the experiment on S. marcescens (API 81.45.111, MH medium) it was 2 mg/L; in the experiment with S. marcescens (API 81.47.110, IST medium) it was 16 mg/L; in the experiment on S. marcescens (API 81.47.110, MH medium) it was 8 mg/L.

On to `Cc1onc(-c2ccccc2)c1C(=O)N[C@@H]1C(=O)N2[C@@H]1SC(C)(C)[C@@H]2C(=O)O` [oxacillin], for which the “NCCLS Category” value is listed as “S” in the experiment with S. aureus (ATCC 29213, IST medium); “S” with S. aureus (ATCC 29213, MH medium); “S” in the experiment with S. aureus (CDC 2194, IST medium); “S” with S. aureus (CDC 2194, MH medium); “S” with S. aureus (CDC 2215, IST medium); “S” with S. aureus (CDC 2215, MH medium). The “NCCLS Category” value in the experiment on S. epidermidis (CDC 2234, IST medium) is recorded as “S”; with S. epidermidis (CDC 2234, MH medium) it was “R”. For the same molecule, the MIC with S. aureus (12 h, CDC 2194, IST medium) was 1 mg/L; with S. aureus (12 h, CDC 2194, MH medium) it was < 0.5 mg/L; in the experiment with S. aureus (12 h, CDC 2215, IST medium), 1 mg/L; with S. aureus (12 h, CDC 2215, MH medium), < 0.5 mg/L; in the experiment on S. aureus (setting [1]) it was < 0.25 mg/L; with S. aureus (setting [2]) it was < 0.25 mg/L. The MIC stood at 2 mg/L in the experiment with S. epidermidis (CDC 2234, IST medium) and 4 mg/L in the experiment on S. epidermidis (CDC 2234, MH medium).

Regarding `CCN1CCN(C(=O)N[C@@H](C(=O)N[C@@H]2C(=O)N3[C@@H]2SC(C)(C)[C@@H]3C(=O)O)c2ccccc2)C(=O)C1=O` [piperacillin], the “NCCLS Category” value in the experiment with K. pneumoniae (AP 14, MH medium) is recorded as “R”; with K. pneumoniae (CDC 2174, IST medium), “S”; in the experiment on K. pneumoniae (CDC 2174, MH medium), “S”; with K. pneumoniae (CDC 2182, IST medium), “S”; in the experiment with K. pneumoniae (CDC 2182, MH medium) it was “I”; with P. aeruginosa (AP 8, IST medium), “S”. In addition, the “NCCLS Category” value is “S” in the experiment with P. aeruginosa (AP 8, MH medium); “S” with P. aeruginosa (AP 13, IST medium); “S” with P. aeruginosa (AP 13, MH medium); “S” with S. marcescens (CDC 2021, IST medium); “S” with S. marcescens (CDC 2021, MH medium); “R” in the experiment on S. marcescens (CDC 2162, IST medium). Moreover, the “NCCLS Category” value with S. marcescens (CDC 2162, MH medium) is “R”. In addition, the MIC with K. pneumoniae (AP 14, IST medium) amounted to 64 mg/L; in the experiment on K. pneumoniae (AP 14, MH medium) it was 256 mg/L; in the experiment on K. pneumoniae (CDC 2174, IST medium) it was 8 mg/L; in the experiment on K. pneumoniae (CDC 2174, MH medium) it was 8 mg/L; in the experiment on K. pneumoniae (CDC 2182, IST medium) it was 16 mg/L; in the experiment on K. pneumoniae (CDC 2182, MH medium), 32 mg/L. In addition, the MIC was 4 mg/L in the experiment with P. aeruginosa (AP 8, IST medium); 4 mg/L in the experiment on P. aeruginosa (AP 8, MH medium); 8 to 16 mg/L in the experiment on P. aeruginosa (AP 13, IST medium); 16 mg/L with P. aeruginosa (AP 13, MH medium); 2 mg/L in the experiment on S. marcescens (CDC 2021, IST medium); 2 mg/L in the experiment with S. marcescens (CDC 2021, MH medium). The MIC with S. marcescens (CDC 2162, IST medium) was > 256 mg/L; with S. marcescens (CDC 2162, MH medium), > 256 mg/L.

In the case of gentamicin, the “Equivalent MIC” value in the experiment with K. pneumoniae (CDC 2177, IST medium) was determined as 0.5 mg/L; in the experiment on K. pneumoniae (CDC 2177, MH medium), 0.25 mg/L; in the experiment on K. pneumoniae (CDC 2249, IST medium), 8 mg/L; in the experiment on K. pneumoniae (CDC 2249, MH medium), 8 mg/L; in the experiment with K. pneumoniae (CDC 2279, IST medium), 4 mg/L; in the experiment on K. pneumoniae (CDC 2279, MH medium) it was 4 mg/L. The “Equivalent MIC” value with P. aeruginosa (CDC 2009, IST medium) was 16 to 32 mg/L; in the experiment with P. aeruginosa (CDC 2009, MH medium) it was 32 mg/L; in the experiment on P. aeruginosa (CDC 2239, IST medium) it was 2 mg/L; with P. aeruginosa (CDC 2239, MH medium) it was 2 mg/L; in the experiment on P. aeruginosa (CDC 2257, IST medium), 0.5 to 1 mg/L; in the experiment with P. aeruginosa (CDC 2257, MH medium) it was 0.5 mg/L. The “NCCLS Category” value in the experiment on K. pneumoniae (CDC 2177, IST medium) is recorded as “S”; with K. pneumoniae (CDC 2177, MH medium), “S”; with K. pneumoniae (CDC 2249, IST medium) it was “I”; with K. pneumoniae (CDC 2249, MH medium) it was “I”; in the experiment with K. pneumoniae (CDC 2279, IST medium), “S”; in the experiment on K. pneumoniae (CDC 2279, MH medium) it was “S”. The “NCCLS Category” value with P. aeruginosa (CDC 2009, IST medium) is recorded as “R”; with P. aeruginosa (CDC 2009, MH medium), “R”; in the experiment on P. aeruginosa (CDC 2239, IST medium), “S”; in the experiment with P. aeruginosa (CDC 2239, MH medium) it was “S”; in the experiment on P. aeruginosa (CDC 2257, IST medium), “S”; in the experiment with P. aeruginosa (CDC 2257, MH medium), “S”.

For the origin of these results see patent publication US5536645A, “Nutritive medium for the culture of microorganism” (priority 1993, dated 1996).
